Converted amounts (≈) assume the structure as drawn. Read-outs that look alike come from different tables or passages of the source.
Experiments:
E. coli strain ATCC25922 = test: MIC, broth microdilution antimicrobial susceptibility test (CLSI); assay type: cell-based; details: E. coli ATCC 25922, growth inhibited by ≥90%, 18 h; for MIC: Escherichia coli, ATCC25922, read-out: MIC^c: Minimum inhibitory concentration against E. coli
Excerpt: (§1) This example illustrates the evaluation of 2,4,6-trisubstituted pyrimidines 14 for their antimicrobial activities against the Gram positive S. aureus strain ATCC29213 and the Gram negative E. coli strain ATCC25922 by measuring their MIC, which is the lowest concentration of an antimicrobial agent that prevents visible growth of a microorganism in a broth dilution susceptibility test according to the standard method approved by the Clinical and Laboratory Standards Institute (CLSI) guidelines.^21
(§2) Procedure of Antimicrobial susceptibility test: The MIC value of compounds was measured in the antimicrobial susceptibility test using the broth microdilution procedure in accordance with the CLSI guidelines.^21 Cation-adjusted Mueller Hinton broth (CA-MHB) was used for all the S. aureus strains in the assay. Cells in exponential phase of growth were diluted to approximately 5×10^5 cfu/mL. Stock solutions of each compound were freshly dissolved in dimethyl sulfoxide (DMSO). Then, serial dilutions of each compound in CA-MHB medium were added into 96-well microplate. The final percentage of DMSO in the assay was 1%. Control experiments were performed with 1% DMSO instead of the compound solution. After being incubated at 37° C. for 18 h, OD600 value of cells was measured on a microplate reader and the percentage of bacterial cell inhibition with respect to controls was calculated. The MIC value was defined as the lowest compound concentration at which the growth of bacteria was inhibited by ≥90%. Three independent assays were performed for each compound.

[1] = test system: S. aureus strain ATCC29213; test: as above; assay type: cell-based; details: for MIC^c/MIC^b: Selectivity index: E. coli ATCC 25922 MIC over S. aureus 29213 MIC; for antibacterial activity in words (SAR analysis): MIC screening, S. aureus; for MIC: Staphylococcus aureus
Excerpt: as §1, §2

[2] = test system: S. aureus ATCC 43300 (methicillin resistant); test: MIC against clinically isolated strain 5; assay type: cell-based; details: Staphylococcus aureus, ATCC43300
Description: as §2
(§3) Results: Three compounds, namely 14av_amine16, 14dv_amine16 and 14dv_amine06, were selected to be tested against nine in-house clinically isolated bacterial strains including S. aureus ATCC29247, which is an ampicillin resistant strain, S. aureus ATCC BAA-41, ATCC BAA-1717, ATCC BAA-1720, ATCC 43300 which are methicillin resistant strains and four USA300 strains, (#417, #757, #1799 and #2690), which are the predominant strain type of community-associated MRSA strains in the United States.

[3] = test system: USA300 #757 (community-associated MRSA); test: MIC against clinically isolated strain 7; assay type: cell-based, S. aureus; details: Staphylococcus aureus
Description: as §2, §3

[4] = test system: USA300 #417 (community-associated MRSA); test: MIC against clinically isolated strain 6; assay type: cell-based, S. aureus; details: Staphylococcus aureus
Description: as §2, §3

[5] = test system: S. aureus ATCC 29247 (ampicillin resistant strain); test: MIC against clinically isolated strain 1; assay type: cell-based; details: Staphylococcus aureus, ATCC29247
Description: as §2, §3

[6] = test system: S. aureus ATCC BAA-41 (methicillin resistant); test: MIC against clinically isolated strain 4; assay type: cell-based; details: Staphylococcus aureus, ATCCBAA41
Description: as §2, §3

[7] = test system: S. aureus ATCC BAA-1717 (methicillin resistant); test: MIC against clinically isolated strain 2; assay type: cell-based; details: Staphylococcus aureus, ATCCBAA1717
Description: as §2, §3

[8] = test system: USA300 #2690 (community-associated MRSA); test: MIC against clinically isolated strain 9; assay type: cell-based, S. aureus; details: Staphylococcus aureus
Description: as §2, §3

[9] = test system: S. aureus ATCC BAA-1720 (methicillin resistant); test: MIC against clinically isolated strain 3; assay type: cell-based; details: Staphylococcus aureus, ATCCBAA1720
Description: as §2, §3

[10] = test system: USA300 #1799 (community-associated MRSA); test: MIC against clinically isolated strain 8; assay type: cell-based, S. aureus; details: Staphylococcus aureus
Description: as §2, §3

[11] = S. aureus 29213, growth inhibited by ≥90%, 18 h
[12] = ATCC29213, S. aureus 29213, growth inhibited by ≥90%, 18 h, read-out: MIC^b: Minimum inhibitory concentration against S. aureus
[13] = S. aureus ATCC29213, read-out: MIC against S. aureus

| SMILES | MIC^c: Minimum inhibitory concentration against E. coli (E. coli strain ATCC25922) | MIC^c/MIC^b: Selectivity index [1] | MIC^b: Minimum inhibitory concentration against S. aureus [1, 11] | antibacterial activity in words (SAR analysis) [1] | other results |
| --- | --- | --- | --- | --- | --- |
| CCC(CC)c1cc(CCN2CCCN(Cc3ccc(C(C)C)cc3)CC2)nc(-c2ccncc2)n1 [Compound 14av_amine06] | >125 µM | >7 | 16 µM (≈ 7.77 µg/mL) | – | – |
| CCC(CC)c1cc(CCN2CCCN(Cc3ccc(C(C)(C)C)cc3)CC2)nc(-c2ccncc2)n1 [Compound 14av_amine07] | >125 µM | >7 | 16 µM (≈ 8 µg/mL) | – | – |
| CCC(CC)c1cc(CCN2CCCN(Cc3ccc(Br)cc3)CC2)nc(-c2ccncc2)n1 [Compound 14av_amine08] | >125 µM | >7 | 16 µM (≈ 8.36 µg/mL) | – | – |
| CCC(CC)c1cc(CCN2CCCN(Cc3ccc(Cl)cc3)CC2)nc(-c2ccncc2)n1 [Compound 14av_amine13] | >125 µM | >9 | 13 µM (≈ 6.22 µg/mL) | – | – |
| CCC(CC)c1cc(CCN2CCCN(Cc3cccc(C(F)(F)F)c3)CC2)nc(-c2ccncc2)n1 [Compound 14av_amine17] | >125 µM | >7 | 16 µM (≈ 8.19 µg/mL) | – | – |
| CCC(CC)c1cc(CCN2CCCN(Cc3ccccc3C(F)(F)F)CC2)nc(-c2ccncc2)n1 [Compound 14av_amine18] | >125 µM | >7 | 16 µM (≈ 8.19 µg/mL) | – | – |
| CCC(CC)c1cc(CCN2CCCN(C(=O)c3ccc(C(F)(F)F)cc3)CC2)nc(-c2ccncc2)n1 [Compound 14av_amine19] | – | – | – | poor antibacterial activity | – |
| CCC(CC)c1cc(CCN2CCCN(CCc3ccc(C(F)(F)F)cc3)CC2)nc(-c2ccncc2)n1 [Compound 14av_amine20, 1-(2-(6-(pentan-3-yl)-2-(pyridin-4-yl)pyrimidin-4-yl)ethyl)-4-(4-(trifluoromethyl)phenethyl)-1,4-diazepane] | – | >15 | – | low MIC value | MIC (E. coli strain ATCC25922): > 125 µM; MIC [1, 12]: 8 µM (≈ 4.21 µg/mL); MIC [1, 13]: 5 to 8 µM (≈ 2.63 to 4.21 µg/mL) |
| CCC(CC)c1cc(CCN2CCN(Cc3ccc(C(F)(F)F)cc3)CC2)nc(-c2ccncc2)n1 [Compound 14av_amine24] | >125 µM | >10 | 12 µM (≈ 5.97 µg/mL) | poor antibacterial activity | – |
| CCC(CC)c1cc(CCN2CCN(Cc3cccc(C(F)(F)F)c3)CC2)nc(-c2ccncc2)n1 [Compound 14av_amine28] | >125 µM | >12 | 10 µM (≈ 4.98 µg/mL) | – | – |
| CCC(CC)c1cc(CCN2CCCN(Cc3ccc(C(F)(F)F)cc3)CC2)nc(C)n1 [Compound 14aw_amine16] | – | – | – | weak antibacterial activity | – |
| CCC(CC)c1cc(CCN2CCCN(Cc3ccc(C(F)(F)F)cc3)CC2)nc(-c2ccccc2)n1 [Compound 14ax_amine16] | – | – | – | weak antibacterial activity | – |
| CCC(CC)c1cc(CCN2CCCN(Cc3ccc(C(F)(F)F)cc3)CC2)nc(-c2cccnc2)n1 [Compound 14ay_amine16] | – | – | – | weak antibacterial activity | – |
| CCC(CC)c1cc(CCN2CCCN(Cc3ccc(C(F)(F)F)cc3)CC2)nc(-c2ccccn2)n1 [Compound 14az_amine16] | – | – | – | weak antibacterial activity | – |
| CC(C)c1cc(CCN2CCCN(Cc3ccc(C(F)(F)F)cc3)CC2)nc(-c2ccncc2)n1 [Compound 14bv_amine16] | – | – | – | poor antibacterial activity | – |
| CCCCCc1cc(CCN2CCCN(Cc3ccc(C(C)C)cc3)CC2)nc(-c2ccncc2)n1 [Compound 14cv_amine06] | >125 µM | >12 | 10 µM (≈ 4.86 µg/mL) | – | – |
| CCCCCc1cc(CCN2CCCN(Cc3ccc(C(F)(F)F)cc3)CC2)nc(-c2ccncc2)n1 [Compound 14cv_amine16] | >125 µM | >12 | 10 µM (≈ 5.12 µg/mL) | poor antibacterial activity | – |
| CC(C)c1ccc(CN2CCCN(CCc3cc(-c4ccccc4)nc(-c4ccncc4)n3)CC2)cc1 [Compound 14dv_amine06, 1-(4-isopropylbenzyl)-4-(2-(6-phenyl-2-(pyridin-4-yl)pyrimidin-4-yl)ethyl)-1,4-diazepane] | – | >25 | – | – | MIC [2]: 10 µM (≈ 4.92 µg/mL); MIC [3]: 10 µM (≈ 4.92 µg/mL); MIC [4]: 10 µM (≈ 4.92 µg/mL); MIC [5]: 5 µM (≈ 2.46 µg/mL); MIC (E. coli strain ATCC25922): > 125 µM; MIC [1, 12]: 5 µM (≈ 2.46 µg/mL); MIC [1, 13]: 5 to 8 µM (≈ 2.46 to 3.93 µg/mL); MIC [6]: 10 µM (≈ 4.92 µg/mL); MIC [7]: 5 µM (≈ 2.46 µg/mL); MIC [8]: 10 µM (≈ 4.92 µg/mL); MIC [9]: 10 µM (≈ 4.92 µg/mL); MIC [10]: 10 µM (≈ 4.92 µg/mL) |
| CC(C)(C)c1ccc(CN2CCCN(CCc3cc(-c4ccccc4)nc(-c4ccncc4)n3)CC2)cc1 [Compound 14dv_amine07, 1-(4-(tert-butyl)benzyl)-4-(2-(6-phenyl-2-(pyridin-4-yl)pyrimidin-4-yl)ethyl)-1,4-diazepane] | – | >25 | – | – | MIC (E. coli strain ATCC25922): > 125 µM; MIC [1, 12]: 5 µM (≈ 2.53 µg/mL); MIC [1, 13]: 5 to 8 µM (≈ 2.53 to 4.05 µg/mL) |
| Brc1ccc(CN2CCCN(CCc3cc(-c4ccccc4)nc(-c4ccncc4)n3)CC2)cc1 [Compound 14dv_amine08, 1-(4-bromobenzyl)-4-(2-(6-phenyl-2-(pyridin-4-yl)pyrimidin-4-yl)ethyl)-1,4-diazepane] | – | >25 | – | – | MIC (E. coli strain ATCC25922): > 125 µM; MIC [1, 12]: 5 µM (≈ 2.64 µg/mL); MIC [1, 13]: 5 to 8 µM (≈ 2.64 to 4.23 µg/mL) |
| Fc1cccc(CN2CCCN(CCc3cc(-c4ccccc4)nc(-c4ccncc4)n3)CC2)c1 [Compound 14dv_amine10] | >125 µM | >12 | 10 µM (≈ 4.68 µg/mL) | – | – |
| Fc1ccc(CN2CCCN(CCc3cc(-c4ccccc4)nc(-c4ccncc4)n3)CC2)cc1F [Compound 14dv_amine12] | >125 µM | >12 | 10 µM (≈ 4.86 µg/mL) | – | – |
| FC(F)(F)c1ccc(CN2CCCN(CCc3cc(-c4ccccc4)nc(-c4ccncc4)n3)CC2)cc1 [Compound 14dv_amine16, 1-(2-(6-phenyl-2-(pyridin-4-yl)pyrimidin-4-yl)ethyl)-4-(4-(trifluoromethyl)benzyl)-1,4-diazepane] | – | >25 | – | – | MIC [2]: 10 µM (≈ 5.18 µg/mL); MIC [3]: 10 µM (≈ 5.18 µg/mL); MIC [4]: 10 µM (≈ 5.18 µg/mL); MIC [5]: 5 µM (≈ 2.59 µg/mL); MIC (E. coli strain ATCC25922): > 125 µM; MIC [1, 12]: 5 µM (≈ 2.59 µg/mL); MIC [1, 13]: 5 to 8 µM (≈ 2.59 to 4.14 µg/mL); MIC [6]: 10 µM (≈ 5.18 µg/mL); MIC [7]: 5 µM (≈ 2.59 µg/mL); MIC [8]: 10 µM (≈ 5.18 µg/mL); MIC [9]: 10 µM (≈ 5.18 µg/mL); MIC [10]: 10 µM (≈ 5.18 µg/mL) |
| FC(F)(F)c1ccc(CCN2CCCN(CCc3cc(-c4ccccc4)nc(-c4ccncc4)n3)CC2)cc1 [Compound 14dv_amine20, 1-(2-(6-phenyl-2-(pyridin-4-yl)pyrimidin-4-yl)ethyl)-4-(4-(trifluoromethyl)phenethyl)-1,4-diazepane] | – | >25 | – | – | MIC (E. coli strain ATCC25922): > 125 µM; MIC [1, 12]: 5 µM (≈ 2.66 µg/mL); MIC [1, 13]: 5 to 8 µM (≈ 2.66 to 4.25 µg/mL) |
